In US9096643B2, “Cell-protective peptides and uses thereof” (priority 2010, dated 2015):
No end group written: not given here.

Columns and labels:
[1] = test system: neonatal rat CMs (heart cells); assay: Immunostaining for cardiac troponin I on coated surfaces; type: cell-based, rat (Sprague-Dawley); details: day 8 of cultivation, vs Az-chitosan alone, FIG. 3
Procedure: The day before cells were ready to be seeded, the surfaces in the 12-well plates were sterilized by germicidal UV illumination overnight. The PBS surrounding the surfaces was then aspirated off and 100,000 live cells were pipetted onto each surface in 100 μL of culture media. These surfaces were left in the incubator for 20 to 30 min to allow the cells to begin to adhere, and then supplemented with 1 mL of warm CM media. The cells were cultivated for 8 days, with 100% culture media change every 2-3 days. The initial seeding density of heart cells on peptide-chitosan coated surfaces was 88 cells/mm^2. […] Each type of surface was created in triplicate.
The immunostaining against cardiac troponin I was performed on cells fixed with 4 w/v % paraformaldehyde (PFA, Sigma). The samples were submersed in a blocking solution composed of 10% normal horse serum (NHS, Vector Laboratories) in PBS for 40 min at room temperature. This solution was removed and the sample was submersed in a solution containing primary antibody for 1 hour at 37° C. […] Each sample was made in triplicate and five pictures were taken of each surface to have an adequate representation for quantification. The numbers of nuclei were determined by counting the number of DAPI stained nuclei using the cell counting plugin on ImageJ. The number of CMs was determined by counting the number of successfully stained Troponin I cells.

[2] = test system: neonatal rat CMs (heart cells); assay: Apo-ONE caspase 3/7 assay after serum starvation and taxol on coated surfaces; type: cell-based, rat (Sprague-Dawley); details: serum-starved, overnight taxol, vs control surfaces, FIG. 4
Procedure: Glass coverslips were coated with Az-chitosan, or Az-chitosan conjugated with QHREDGS, RGDS, or a scrambled peptide (DGQESHR). The cells were then seeded (100,000 cells in 50 μL of CM media; seeding density of 88 cells/mm^2) on each surface (N=3), including plain glass as a control, for 15 min. The cells were then supplemented with serum-free media. After 19 hours, 5 μL of taxol (paclitaxel, Sigma), dissolved at 100 μM in DMSO, was added and maintained for 17 hours and 45 min at which time caspase assay was performed. One set of glass surfaces was not exposed to taxol treatment as a negative control.
The Apo-ONE caspase assay (Promega) was performed according to manufacturer's protocol. The cells were permeabilized and lyzed to release the caspases, which are activated in cells undergoing apoptosis. The assay contains rhodamine 110, bis-(N-CBZ-L-aspartyl-L-glutamyl-L-valyl-L-aspartic acid amide; Z-DEVD-R110). Caspase 3 and 7 are known to cleave the peptide DEVD and the leaving group, rhodamine 110 becomes fluorescent when excited with fluorescent light. The amount of fluorescence is proportional to the level of caspase 3/7 activity in the sample. According to the manufacturer's protocol, the caspase substrate was dissolved in a buffer at 1:100. […] The fluorescence of the buffer was read in the fluorometer at an excitation of 485 nm and a cut off of 520 nm. […]

[3] = test system: neonatal rat CMs (heart cells); assay: Preliminary 3D cell encapsulation studies in hydrogels; type: cell-based, rat (Sprague-Dawley); details: encapsulated, 1 to 4 days of 3D culture
Procedure: The lyophilized form of the peptide-modified Az-chitosan was dissolved in sterile 0.9% saline at 12 mg/mL. CMs (2.5×10^6) were suspended in 15 μL of CM culture media with 30% serum for 15 minutes on ice. These cells were then suspended in 35 μL of the hydrogel and crosslinked in the transwell inserts of the 96 well plates. The cells were cultivated in the CM culture medium with 10% FBS for up to 4 days.

human iPS cells = assay: iPS cell colony number following passage; type: cell-based; details: vs PBS control, FIG. 11
Procedure: The human iPS cells (BJ1D and 0901B) were obtained from the Ontario iPSC Facility and used following the hiPS cell research guidelines of the University of Toronto as described by Hotta et al. Nat. Protoc. 4, 1828-1844 (2009)), unless specified otherwise. Cells were cultured on a feeder layer of MEF cells (Mount Sinai Hospital Toronto, inactivated with 10 μg/ml mitomycin C and seeded at 1.8×10^5 per 3.5 cm dish). For single cell cultures, hiPS cell colonies were dissociated in 0.25% Trypsin-EDTA (Invitrogen) for 5 min, followed by trituration with a pipette. To ensure a single-cell suspension, the dissociated cells were passed through a 40 μm cell strainer (BD Falcon) and seeded onto MEF plates at 10 cells/ml, 10 cm plates. Cells were allowed to grow for 7 days and the total number of colonies was counted. In the treated groups, QHREDGS (Biomatik) or DGQESHR (Biomatik) dissolved in PBS (Lonza), were added at the reported concentrations to culture media at the onset of the first treatment passage and replenished with each media change. Media was changed by 100% every day. Peptides and controls were included during dissociation and passaging. Cells were analyzed after 5 passages in continuous treatment with 50 μM QHREDGS, 50 μM DGQESHR, or PBS, unless specified otherwise.
To determine the optimal concentration of QHREDGS for iPSC expansion, a dose-response experiment was performed. Cells were treated with 5 μM, 50 μM, or 500 μM of QHREDGS peptide, or 500 μM scrambled peptide (DGQESHR) in PBS with a PBS treated control for five passages and stained for CFDA-Live/PI-Dead. Live cells were counted using the cell counter plug in for ImageJ.

Row | Substance | percentage of troponin I positive cells [1] | caspase-3/7 activation [2] | heart cell survival and elongation in 3D hydrogel [3] | increase in colony number (human iPS cells; 50 μM) | increase in colony number (human iPS cells; 50 μM, on average) | increase in colony number (human iPS cells; 500 μM)
1 | Az-chitosan-QHREDGS: QHREDGS peptide covalently conjugated to Az-chitosan by EDC chemistry (also: covalently conjugated to Az-chitosan by EDC chemistry, site not given here) | increase in the percentage of troponin I positive cells | significantly lower levels of caspase-3/7 activation | heart cell elongation |  |  | 
2 | QHREDGS (angiopoietin 1 peptide) |  |  |  | 14.3% | greater than 10 colonies/well | 40%
